From PubChem BioAssay (NCI)
“And” between values parts separate entries of the source, which are not always exact repeats. Identical values can stand only once.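 All cell lines were grown in 96-well plates and treated with compound for 48 hours. GI50 marks 50% less growth. TGI marks complete inhibition of growth.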

What was measured:
Test in all cases: inhibition of tumour cell growth, NCI panel, 48 h
SNB-78 CNS = tested on: SNB-78 CNS
U251 CNS = tested on: U251 CNS
HCT-116 colon = tested on: HCT-116 colon
M19-MEL melanoma = tested on: M19-MEL melanoma
CAKI-1 renal = tested on: CAKI-1 renal
DLD-1 colon = tested on: DLD-1 colon
DMS 114 small cell lung = tested on: DMS 114 small cell lung
RPMI-8226 leukemia = tested on: RPMI-8226 leukemia
A498 renal = tested on: A498 renal
MCF7 breast = tested on: MCF7 breast
HS 578T breast = tested on: HS 578T breast
MDA-MB-435 = tested on: MDA-MB-435

Compound	TGI (SNB-78 CNS)	TGI (U251 CNS)	TGI (HCT-116 colon)	TGI (M19-MEL melanoma)	TGI (CAKI-1 renal)	TGI (DLD-1 colon)	TGI (DMS 114 small cell lung)	TGI (RPMI-8226 leukemia)	TGI (A498 renal)	GI50 (U251 CNS)	GI50 (MCF7 breast)	TGI (MCF7 breast)	GI50 (HCT-116 colon)	GI50 (HS 578T breast)	GI50 (MDA-MB-435)	TGI (MDA-MB-435)	GI50 (A498 renal)	GI50 (CAKI-1 renal)	GI50 (RPMI-8226 leukemia)	TGI (HS 578T breast)
O=C(O)C[C@H]1CCCCC12CCOC2=O (some centres not stated)	> 100 µM	> 100 µM	> 100 µM	> 100 µM	> 100 µM	> 100 µM	> 100 µM	> 100 µM												
Cc1cccc2c1N(C(=O)/C=C\C(=O)O)C(c1c(C)[nH]c3ccccc13)C2 (configuration not stated)	> 100 µM	> 10 µM	54.3 µM	53.1 µM	> 100 µM	> 100 µM	42.2 µM	> 100 µM	> 100 µM											
NS(=O)(=O)c1ccc(NC2=CC(=O)C(=O)c3ccccc32)cc1	> 100 µM	> 100 µM	> 100 µM	> 100 µM	> 100 µM	> 100 µM	> 100 µM	> 100 µM	> 100 µM											
OCC(O)C(O)C(O)c1nn(-c2ccc(Cl)cc2)c2nc3cc(Cl)c(Cl)cc3nc12 (configuration not stated)	76.9 µM	> 100 µM	> 100 µM	> 100 µM	> 100 µM	> 100 µM	> 100 µM	> 100 µM												
CCOC(=O)C1C2CCC(C2)C1(CCl)C(=O)OCC (configuration not stated)		> 100 µM	> 100 µM	> 100 µM	> 100 µM		> 100 µM	> 100 µM	> 100 µM											
Cc1ccc(NC(=O)C(=O)C(C#N)c2nc(-c3ccc(-c4ccccc4)cc3)cs2)c(C)c1 (configuration not stated)	> 100 µM	> 100 µM	> 100 µM	> 100 µM	> 100 µM	> 100 µM	> 100 µM	> 100 µM	> 100 µM											
O=C1c2ccccc2C(=O)N1CCN(CCN1C(=O)c2ccccc2C1=O)Cn1cccn1	> 100 µM	> 100 µM	31.6 µM	> 100 µM	> 100 µM	> 100 µM	38.3 µM	83.4 µM	> 100 µM											
O=C(c1ccccc1)N1C2CCC1C(C(F)(F)F)=C2C(F)(F)F	> 100 µM	> 100 µM	> 100 µM	> 100 µM	> 100 µM	> 100 µM	> 100 µM	> 100 µM	> 100 µM											
COc1c(C(=O)c2ccc([N+](=O)[O-])cc2)cc(C(C)(C)C)cc1C(C)(C)C	> 100 µM	50.1 µM	62.9 µM	> 100 µM	> 100 µM	> 100 µM	73.1 µM	31.7 µM	> 100 µM											
NNC(=O)CNC(=O)c1ccc(Cl)cc1Cl		> 100 µM	> 100 µM	> 100 µM	> 100 µM	> 100 µM	> 100 µM	> 100 µM	> 100 µM											
CCCCCCCCOCC(O)COC(=O)CCCCCCC (configuration not stated)		> 100 µM	> 100 µM	> 100 µM	> 100 µM	> 100 µM	> 100 µM	> 100 µM	> 100 µM											
Cc1cc2c(cc1C)[n+](=O)c(C(=O)C/C(=N/OCCCc1ccccc1)C(=O)Nc1cc(Cl)ccc1Cl)c(C)n2[O-]	> 100 µM	> 100 µM	> 100 µM	> 100 µM	> 100 µM	> 100 µM			> 100 µM											
N#Cc1c2c(c(N=P(c3ccccc3)(c3ccccc3)c3ccccc3)n3c1nc1ccccc13)CCCC2	97.3 µM	77.9 µM	> 100 µM	67.8 µM	> 100 µM	> 100 µM	59.4 µM	61.6 µM	73.2 µM											
COC(=O)C(CC(C)C)NC(=O)NC12CC3CC(CC(F)(C3)C1)C2 (configuration not stated)	> 100 µM	> 100 µM	> 100 µM	> 100 µM		> 100 µM	> 100 µM	> 100 µM	> 100 µM											
COC(=O)C(C(=O)C(=O)Nc1nc(=S)[nH][nH]1)c1csc(-n2nc(-c3ccccc3)cc2-c2ccccc2)n1 (configuration not stated)	> 100 µM	> 100 µM	> 100 µM	> 100 µM	> 100 µM	> 100 µM		> 100 µM	> 100 µM											
CC[P+](C)(C)c1ccccc1	> 100 µM	> 100 µM		> 100 µM	> 100 µM	> 100 µM	> 100 µM	> 100 µM	> 100 µM											
CC1C[C@H](C)CC(C(O)CC2CC(=O)N(Cc3ccccc3)C(=O)C2)C1O (some centres not stated)	> 100 µM	> 100 µM	> 100 µM	> 100 µM	> 100 µM	> 100 µM	> 100 µM	> 100 µM	> 100 µM											

Compound	TGI (SNB-78 CNS)	TGI (U251 CNS)	TGI (HCT-116 colon)	TGI (M19-MEL melanoma)	TGI (CAKI-1 renal)	TGI (DLD-1 colon)	TGI (DMS 114 small cell lung)	TGI (RPMI-8226 leukemia)	TGI (A498 renal)	GI50 (U251 CNS)	GI50 (MCF7 breast)	TGI (MCF7 breast)	GI50 (HCT-116 colon)	GI50 (HS 578T breast)	GI50 (MDA-MB-435)	TGI (MDA-MB-435)	GI50 (A498 renal)	GI50 (CAKI-1 renal)	GI50 (RPMI-8226 leukemia)	TGI (HS 578T breast)
CC1(C)C(O)C[C@@H](O)[C@@]2(C)C1CC[C@]1(C)C2C[C@@H](O)[C@@H]2C([C@@]3(C)CC[C@@H](C(C)(C)O)O3)CCC21C (some centres not stated)	43.8 µM	25.5 µM	30.9 µM		42.1 µM	31.5 µM	29.1 µM	66.5 µM	34.9 µM											
CC(/C(=N\Nc1ccccc1)c1ccc(O)cc1)C1C(=O)Oc2ccccc21 (configuration not stated)		> 100 µM	> 100 µM	> 100 µM	> 100 µM	> 100 µM	> 100 µM	> 100 µM	> 100 µM											
CNCc1cc(OC)ccc1-c1ccc(OC)c(OC)c1OC	> 100 µM	> 100 µM	> 100 µM	> 100 µM	> 100 µM	> 100 µM	> 100 µM	> 100 µM	> 100 µM											
CC1CC(=O)Nc2ccccc2N1C(=O)CN1CCC(CCCCN(C)C)CC1 (configuration not stated)	> 100 µM	> 100 µM	> 100 µM	> 100 µM	> 100 µM	> 100 µM	> 100 µM	> 100 µM	> 100 µM											
O=C1CCC2CC(C(=O)c3ccccc3)CCC2CN1 (configuration not stated) (tested in a mixture with another compound)	> 100 µM	> 100 µM	> 100 µM	> 100 µM	> 100 µM	> 100 µM	> 100 µM	> 100 µM												
CC1=CC(=C(c2ccc(N)cc2)c2ccc(N)cc2)C=CC1=N	9.89 µM	5.38 µM and > 36 µM and 13 µM	4.15 µM and 25.7 µM and 9.14 µM	14.5 µM	13.9 µM and 51.7 µM and 35.6 µM	> 100 µM	12.9 µM		> 27.4 µM and > 100 µM and 32.2 µM	0.316 µM and 0.455 µM and 0.538 µM	0.803 µM and 2.32 µM	11.4 µM and > 66.8 µM and 21.1 µM	0.457 µM and 2.8 µM	0.209 µM and 0.841 µM	0.969 µM	10.2 µM and > 44.8 µM and 15.6 µM	2.2 µM	3.35 µM and 8.97 µM		
CCOC(=O)CSC(=O)NCCCl	> 100 µM	> 100 µM	> 100 µM		> 100 µM	> 100 µM	> 100 µM	> 100 µM	> 100 µM										> 100 µM	
CC1SC2=NC3=C(c4ccccc4C3=O)C(c3ccc(Cl)cc3)N2C1=O (configuration not stated)		> 100 µM		> 100 µM	> 100 µM	> 100 µM	> 100 µM	> 100 µM	> 100 µM											
CCCCCCCCCCCCCC(=O)OCC1OC(n2cc(F)c(=O)[nH]c2=O)C(NC(=O)OCc2ccccc2)C(OC(=O)CCCCCCCCCCCCC)C1O (configuration not stated)	> 100 µM	> 100 µM	> 100 µM	> 100 µM	> 100 µM	> 100 µM	> 100 µM	> 100 µM	> 100 µM											
CC1=NOC(=O)/C1=C/c1cccc2ccccc12	> 100 µM	> 100 µM	> 100 µM	> 100 µM	> 100 µM	> 100 µM	> 100 µM	> 100 µM	> 100 µM											
CC(=O)Nc1cc(N(CCOS(C)(=O)=O)CCOS(C)(=O)=O)ccc1N=O		> 100 µM	> 100 µM	> 100 µM	> 100 µM	> 100 µM	> 100 µM	> 100 µM												
COC(=O)/C(=N\Nc1nc(=S)[nH]n1N)C(C#N)c1ccccc1 (configuration not stated)	> 100 µM	> 100 µM	> 100 µM	> 100 µM		> 100 µM		> 100 µM	> 100 µM											
COc1ccc(C2CC(c3cc(C)ccc3O)=NC(N)=N2)cc1 (configuration not stated)	> 100 µM	> 100 µM	> 100 µM	> 100 µM	> 100 µM	> 100 µM	> 100 µM	> 100 µM	> 100 µM											
C/C(=C\CCc1ccoc1)CC/C=C(\C)CCCN1CCOCC1		19.1 µM	10.2 µM		14.9 µM			4.99 µM	19.7 µM	6.29 µM	2.71 µM	11.2 µM	2.27 µM	4.07 µM	3.48 µM	13.7 µM	4.48 µM	3.65 µM	1.88 µM	24.7 µM
Cc1ccccc1-n1ncc(C(=O)c2ccccc2)c1N		> 25 µM	> 25 µM		> 25 µM			> 25 µM	> 25 µM	> 25 µM	> 25 µM	> 25 µM	> 25 µM	> 25 µM	> 25 µM	> 25 µM	> 25 µM	> 25 µM	> 25 µM	> 25 µM
COc1ccc2c(CN3CCC(C(=O)O)CC3)cc3cc4c(cc3c2c1)OCO4		> 100 µM	8.78 µM		7.8 µM			3.59 µM	3.33 µM	2.74 µM	3.1 µM	18.3 µM	1.4 µM	3.97 µM	2.66 µM	7.42 µM	1.79 µM	2.44 µM	1.4 µM	25.8 µM
CC1COc2c(N3CCN(C)CC3)c(F)cc3c(=O)c(C(=O)O)cn1c23 (configuration not stated)		> 100 µM	> 100 µM		> 100 µM			> 100 µM	> 100 µM	> 100 µM	> 100 µM	> 100 µM	> 100 µM	> 100 µM	> 100 µM	> 100 µM	> 100 µM	> 100 µM	> 100 µM	> 100 µM
